According to article PMC2936744 (PLoS Pathogens, 2010):
Read-outs that look alike come from different tables or passages of the source.

Experiments:
[1] = tested on: BVDV; experiment: microbe, parasite or virus in culture; details: Bovine viral diarrhea virus isolates and strains, read-out: EC50 BVDV
Method: (§1) BVDV cell protection assays were performed essentially as described [54] by infecting MDBK cells with 0.1 pfu/cell of BVDV strain NADL. Infected cells were incubated at 37°C for 3 days and virus-induced cytopathicity was measured using the Cell Titer-Glo reagent (Promega). HIV assays were performed as described [55] by infecting MT2 cells with 0.05 pfu/cell of the NL4-3 strain of HIV (NIH Research and Reference Reagent Program) containing the Renilla luciferase gene (NL-Rluc) in the Nef locus. Infected cells were incubated at 37°C for 5 days and virus replication was measured by reverse transcriptase assay using a scintillation proximity assay as described [55].

[2] = tested on: HCVpp-1b; experiment: Inhibitor time-of-addition / attachment vs post-attachment assay, Huh-H1 cells
Method: Huh-H1 cells were seeded at 5×10^3 cells/well in 96-well plates. The following day the plates were chilled to 4°C and the media was removed and replaced with HCVpp inoculum in a volume of 50 µl. Plates were incubated at 4°C for 1.5 hr on a rocking platform. The inoculum was removed and unbound virus was removed by 2 washes with 4°C media. Fresh media was added and the plates were shifted to a 37°C incubator. […] At 3 days post infection, firefly luciferase activity was quantified using the Steady-Glo Reagent (Promega) according to the manufacturer's instructions. Experiments were done in triplicate and the mean % inhibition was calculated relative to control infections lacking inhibitor.

[3] = tested on: HIV; experiment: microbe, parasite or virus in culture; details: Human immunodeficiency virus 1, MT2, read-out: EC50 HIV
Method: as §1

[4] = tested on: HCVcc-2a/2a-Rluc; format: cell-based
[5] = in vitro; details: bovine
Method: (§2) In addition, compound-induced cytotoxicity in each cell line used for the infection assays was measured.

[6] = in vitro; details: human
Method: as §2

[7] = in vitro; details: dog
Method: as §2

[8] = tested on: VSVpp; experiment: microbe, parasite or virus in culture; format: cell-based; details: Vesicular stomatitis virus, Huh-H1, read-out: EC50 VSVpp
[9] = tested on: HCVcc-1a/2a; details: 0.5 µM EI-1 in agarose overlay
Method: An assay incorporating a semisolid medium was used to access cell-to-cell spread as described [57]. HCVcc-1a/c2a was added to 1.6×10^4 Huh-7.5 cells at 0.001 ffu/cell incubated at 37°C. […] Cells were incubated at 37°C for 2, 3 or 4 days at which time the agarose was removed and the infected cells were detected using indirect immunofluorescence for the HCV core protein as described above. The mean number of infected cells/ffu was determined from ≥100 foci for each data point.

[10] = format: cell-based; details: human, Huh-7.5 cells
[11] = tested on: HCVcc-1b/2a; format: cell-based, hepatitis C virus
[12] = tested on: HCVcc-1a/2a-Rluc; format: cell-based, hepatitis C virus; details: mean of 8 independent experiments
[13] = tested on: HCV entry; format: cell-based, hepatitis C virus

CCCCCNc1nc(Nc2ccc([N+](=O)[O-])cc2)nc(OCC(F)(F)F)n1 [EI-1, N ^2-(4-nitrophenyl)-N ^4-pentyl-6-(2,2,2-trifluoroethoxy)-1,3,5-triazine-2,4-diamine]
EC50 [1]: > 50 µM
effect on the attachment of HCVpp to HSPGs (inhibitor during 4°C step only; in words) ([2]; 0.125 µM EI-1): little effect
time of infection within which inhibition is exerted ([2]; 0.125 µM EI-1 added at intervals after 37°C shift): ≤ 3 h
inhibition at 0.125 µM ([2]; Hepatitis C virus, Huh-H1, read-out: inhibition when inhibitor present during the 37°C phase only (post-attachment)): > 90%
EC50 [3]: 23.4 µM
activity against genotype 2a/2a chimeric virus (in words) [4]: not active
CC50 [5]: > 50 µM
CC50 [6]: > 50 µM
CC50 [7]: > 50 µM
EC50 [8]: 33 µM
cell-to-cell transmission (in words) [9]: abrogated
CC50 [10]: > 50 µM
progeny virus release, inhibitor present during entry (in words) [11]: dose-dependent reduction
virus release, inhibitor added 5 hours post infection (post entry; in words) [11]: did not affect the levels of virion particles or infectious virus produced

CO/C1=C\C(C)=C\[C@@H](C)[C@@H](O)[C@@H](C)C/C(C)=C/C=C/[C@H](OC)[C@@H]([C@@H](C)[C@@H](O)[C@H](C)[C@@]2(O)C[C@@H](O)[C@H](C)[C@@H](C(C)C)O2)OC1=O [bafilomycin, bafilomycin A1, reference compound]
time after the 37°C temperature shift at which sensitivity to the inhibitor was lost ([2]; 10 nM bafilomycin A1): ≥ 3 h
stage of entry at which the control inhibitor is effective (in words) ([2]; heparin 200 µg/ml, anti-CD81 monoclonal antibody 2 µg/ml, bafilomycin A1 10 nM): only effective during the post-attachment stage

C=C[C@@H]1C[C@]1(NC(=O)[C@@H]1C[C@@H](Oc2nccc3cc(OC)ccc23)CN1C(=O)[C@@H](NC(=O)OC(C)(C)C)C(C)(C)C)C(=O)NS(=O)(=O)C1CC1 [BMS-605339]
EC50 [12]: 0.123 µM

COC(=O)N[C@H](C(=O)N1CCC[C@H]1c1nc(-c2ccc(-c3ccc(-c4c[nH]c([C@@H]5CCCN5C(=O)[C@@H](NC(=O)OC)C(C)C)n4)cc3)cc2)c[nH]1)C(C)C [BMS-790052, reference compound]
virus release, inhibitor added 5 hours post infection (post entry; in words) [11]: prevented virus release

CCCCCCCCO[C@@H]1O[C@H](CO)[C@@H](O)[C@H](O)[C@H]1O [β-OG, n-octyl-β-D-glucoside]
inhibition of HCV entry (in words) [13]: did not inhibit
